Experiments:
[1] = biological target: Dihydroorotate dehydrogenase (quinone), mitochondrial (Homo sapiens) (UniProt Q02127); assay: Inhibition of human DHODH at 100 uM
[2] = biological target: T1, Dihydroorotate dehydrogenase (fumarate) (Leishmania major) (UniProt Q4QEW7); assay: Inhibition of recombinant oligo-histidine-tagged Leishmania major DHODH expressed in Escherichia coli BL21(DE3) cells at 100 uM using DHO as substrate measured after 60 secs
T1 sequence (whole entry): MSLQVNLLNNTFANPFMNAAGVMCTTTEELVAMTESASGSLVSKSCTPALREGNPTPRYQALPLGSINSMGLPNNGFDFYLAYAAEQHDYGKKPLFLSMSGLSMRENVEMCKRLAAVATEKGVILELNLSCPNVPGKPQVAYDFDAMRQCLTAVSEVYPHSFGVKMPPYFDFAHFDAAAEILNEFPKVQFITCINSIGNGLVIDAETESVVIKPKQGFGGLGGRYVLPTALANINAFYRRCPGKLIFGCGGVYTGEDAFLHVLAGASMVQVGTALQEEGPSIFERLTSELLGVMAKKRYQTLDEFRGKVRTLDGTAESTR

[3] = biological target: T2, Dihydroorotate dehydrogenase (fumarate) (Leishmania major, UniProt Q4QEW7); assay: Inhibition of recombinant oligo-histidine-tagged Leishmania major DHODH expressed in Escherichia coli BL21(DE3) cells using DHO as substrate measured after 60 secs; conditions: read-out: IC50
T2 sequence (Q4QEW7 whole entry): T1 sequence (whole entry)

[4] = biological target: T1, Dihydroorotate dehydrogenase (fumarate) (Leishmania major); assay: Binding affinity to Leishmania major DHODH assessed as change in melting temperature at 100 uM by differential scanning fluorimetry-based ThermoFMN assay
[5] = biological target: T1, Dihydroorotate dehydrogenase (fumarate) (Leishmania major); assay: Binding affinity to Leishmania major DHODH assessed as change in melting temperature at 500 uM by differential scanning fluorimetry-based ThermoFMN assay
[6] = biological target: T1, Dihydroorotate dehydrogenase (fumarate) (Leishmania major); assay: Binding affinity to Leishmania major DHODH assessed as change in melting temperature at 1000 uM by differential scanning fluorimetry-based ThermoFMN assay
[7] = biological target: T1, Dihydroorotate dehydrogenase (fumarate) (Leishmania major); assay: Binding affinity to Leishmania major DHODH assessed as change in melting temperature at 100 uM by SYPRO orange dye-based differential scanning fluorimetry
[8] = biological target: T1, Dihydroorotate dehydrogenase (fumarate) (Leishmania major); assay: Binding affinity to Leishmania major DHODH assessed as change in melting temperature at 500 uM by SYPRO orange dye-based differential scanning fluorimetry
[9] = biological target: T1, Dihydroorotate dehydrogenase (fumarate) (Leishmania major); assay: Binding affinity to Leishmania major DHODH assessed as change in melting temperature at 1000 uM by SYPRO orange dye-based differential scanning fluorimetry
Leishmania amazonensis [10] = assay: Antileishmanial activity against Leishmania amazonensis promastigotes; format: functional, organism-based
Leishmania braziliensis [11] = assay: Antileishmanial activity against Leishmania braziliensis promastigotes; format: functional, organism-based
Leishmania major [12] = assay: Antileishmanial activity against Leishmania major promastigotes; format: functional, organism-based
Leishmania major [13] = assay: Antileishmanial activity against Leishmania major amastigotes; format: functional, organism-based
Trypanosoma congolense = assay: Antitrypanosomal activity against Trypanosoma congolense STIB 910 trypomastigotes after 24 hrs by Alamar Blue assay; format: functional, organism-based; conditions: STIB 910, 24 h
Trypanosoma brucei = assay: Antitrypanosomal activity against Trypanosoma brucei TC221 trypomastigotes after 24 hrs by Alamar Blue assay; format: functional, organism-based; conditions: TC221, 24 h
Trypanosoma cruzi [14] = assay: Antitrypanosomal activity against Trypanosoma cruzi Y amastigotes infected in Swiss albino mouse measured on day 7 post infection by Gential violet staining-based assay; format: functional, organism-based; conditions: 168 h
Leishmania donovani [15] = assay: Antileishmanial activity against Leishmania donovani MHOM/ET/67/L82 axenic amastigotes after 72 hrs by resazurin dye-based fluorescence assay; format: functional, organism-based; conditions: MHOM/ET/67/L82, 72 h
[16] = test system: Trypanosoma brucei rhodesiense; assay: Antitrypanosomal activity against Trypanosoma brucei rhodesiense STIB 900 trypomastigotes after 72 hrs by resazurin dye-based fluorescence assay; format: functional, organism-based; conditions: STIB 900, 72 h
Trypanosoma cruzi [17] = assay: Antitrypanosomal activity against Trypanosoma cruzi Tulahuen trypomastigotes after 96 hrs by CPRG/Nonidet reagent based spectrophotometric method; format: functional, organism-based
[18] = biological target: T1, Dihydroorotate dehydrogenase (fumarate) (Leishmania major); assay: Inhibition of recombinant oligo-histidine-tagged Leishmania major DHODH expressed in Escherichia coli BL21(DE3) cells at 150 uM using DHO as substrate measured after 60 secs
Leishmania amazonensis [19] = assay: Antileishmanial activity against Leishmania amazonensis MHOM/BR/77/LTB 0016 promastigotes after 72 hrs by MTT assay; format: functional, organism-based; conditions: MHOM/BR/77/LTB 0016, 72 h
Leishmania amazonensis [20] = assay: Antileishmanial activity against Leishmania amazonensis MHOM/BR/77/LTB 0016 amastigotes infected in mouse peritoneal macrophages after 72 hrs by staining-based assay; format: functional, organism-based; conditions: MHOM/BR/77/LTB 0016, 72 h
Trypanosoma cruzi [21] = assay: Antitrypanosomal activity against Trypanosoma cruzi Y amastigotes after 24 hrs by Gential violet staining-based assay; format: functional, organism-based
Leishmania infantum [22] = assay: Antileishmanial activity against Leishmania infantum MHOM/MA(BE)/6 amastigotes infected in mouse J774A.1 cells after 120 hrs by Giemsa staining-based assay; format: functional, organism-based; conditions: MHOM/MA(BE)/6, J774.A1, 120 h
Leishmania infantum [23] = assay: Antileishmanial activity against Leishmania infantum MHOM/MA(BE)/6 promastigotes infected in mouse J774A.1 cells after 120 hrs by Giemsa staining-based assay; format: functional, organism-based; conditions: MHOM/MA(BE)/6, J774.A1, 120 h
[24] = test system: Trypanosoma brucei rhodesiense; assay: Antitrypanosomal activity against Trypanosoma brucei rhodesiense STIB900 trypomastigotes; format: functional, organism-based
Leishmania donovani [25] = assay: Antileishmanial activity against Leishmania donovani amastigotes; format: functional, organism-based
Trypanosoma cruzi [26] = assay: Antitrypanosomal activity against Trypanosoma cruzi amastigotes; format: functional, organism-based
Leishmania infantum [27] = assay: Antileishmanial activity against Leishmania infantum MHOM/BR/1972/LD promastigotes; format: functional, organism-based
Leishmania donovani [28] = assay: Antileishmanial activity against Leishmania donovani MHOM/ET/67/L82 amastigotes after 72 hrs by Alamar Blue assay; format: functional, organism-based; conditions: MHOM/ET/67/L82, 72 h
Trypanosoma cruzi [29] = assay: Antitrypanosomal activity against Trypanosoma cruzi Tulahuen C2C4 trypomastigotes infected in rat skeletal myoblasts L-6 cells after 96 hrs by CPRG/Nonidet reagent based spectrophotometric method; format: functional, organism-based; conditions: Tulahuen C2C4, L6, 96 h
[30] = test system: Trypanosoma brucei rhodesiense; assay: Antitrypanosomal activity against Trypanosoma brucei rhodesiense STIB 900 trypomastigotes after 72 hrs by Alamar Blue assay; format: functional, organism-based; conditions: STIB 900, 72 h
Leishmania amazonensis [31] = assay: Antileishmanial activity against Leishmania amazonensis IFLA/BR/1967/PH-8 promastigotes after 48 hrs by MTT assay; format: functional, organism-based; conditions: IFLA/BR/1967/PH-8, 48 h
[32] = test system: Trypanosoma brucei rhodesiense; assay: Antitrypanosomal activity against Trypanosoma brucei rhodesiense STIB900 trypomastigotes after 72 hrs by Alamar Blue assay; format: functional, organism-based; conditions: STIB 900, 72 h
Trypanosoma cruzi [33] = assay: Antitrypanosomal activity against Trypanosoma cruzi trypomastigotes; format: functional, organism-based
Leishmania donovani [34] = assay: Antileishmanial activity against Leishmania donovani; format: functional, organism-based
Leishmania amazonensis [35] = assay: Antileishmanial activity against Leishmania amazonensis; format: functional, organism-based
Leishmania braziliensis [36] = assay: Antileishmanial activity against Leishmania braziliensis; format: functional, organism-based

Sequence of Dihydroorotate dehydrogenase (quinone), mitochondrial (Homo sapiens) (Q02127 whole entry): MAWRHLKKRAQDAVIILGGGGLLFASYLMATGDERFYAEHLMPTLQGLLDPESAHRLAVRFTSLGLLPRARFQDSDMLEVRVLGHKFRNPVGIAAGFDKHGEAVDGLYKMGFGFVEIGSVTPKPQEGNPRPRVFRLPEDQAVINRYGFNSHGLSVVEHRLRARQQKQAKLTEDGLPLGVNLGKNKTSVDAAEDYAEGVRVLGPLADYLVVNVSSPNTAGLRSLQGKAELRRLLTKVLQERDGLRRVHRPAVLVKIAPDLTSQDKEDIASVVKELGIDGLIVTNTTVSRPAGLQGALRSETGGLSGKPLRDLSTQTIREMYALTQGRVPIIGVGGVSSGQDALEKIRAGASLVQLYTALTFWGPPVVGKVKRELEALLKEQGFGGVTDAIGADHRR

CC(=O)OCC1=C2[C@@H](OC(C)=O)C[C@@](C)(OC(C)=O)C(=O)CC[C@@]3(C)O[C@@H]3[C@H]2OC1=O
inhibition [1]: 0%
inhibition [2]: 41%
IC50 [3]: 30.9 µM
ΔTm [4]: -0.21 °C
ΔTm [5]: -0.41 °C
ΔTm [6]: -0.7 °C
ΔTm [7]: -0.27 °C
ΔTm [8]: -0.47 °C
ΔTm [9]: -0.64 °C
IC50 (Leishmania amazonensis [10]): 46.1 µM
IC50 (Leishmania braziliensis [11]): 27.9 µM

C[C@@H]1CC[C@H]2[C@@H](C)C(=O)O[C@@H]3O[C@@]4(C)CC[C@@H]1[C@]32OO4 [ARTEMISININ]
inhibition [1]: 0%
inhibition [2]: 44%
IC50 [3]: 172 µM
ΔTm [4]: -0.13 °C
ΔTm [5]: -0.35 °C
ΔTm [6]: -0.4 °C
ΔTm [7]: -0.14 °C
ΔTm [8]: -0.22 °C
ΔTm [9]: -0.52 °C
IC50 (Leishmania major [12]): 0.75 µM
IC50 (Leishmania major [13]): 0.3 µM

CC[C@H]1CN2CCc3cc(OC)c(OC)cc3[C@@H]2C[C@@H]1C[C@H]1NCCc2cc(OC)c(OC)cc21 [EMETINE]
IC50 (Trypanosoma congolense): 0.43 µM
IC50 [3]: 1070 µM
IC50 (Trypanosoma brucei): 0.04 µM

COc1cc(O)c2c(=O)cc(-c3ccc(OC)c(OC)c3)oc2c1
IC50 [3]: 217 µM
IC50 (Trypanosoma cruzi [14]): 217 µM

C=C1C(=O)O[C@@H]2/C=C(\CO)CC/C=C(\C)C[C@H](OC(=O)C(=C)[C@@H](O)CO)[C@@H]12
IC50 [3]: 361 µM
IC50 (Leishmania donovani [15]): 15.2 µM
IC50 [16]: 1.3 µM
IC50 (Trypanosoma cruzi [17]): 16.8 µM

C=C1C(=O)O[C@@H]2[C@H]3C(C)=CC(=O)C3=C(C)C[C@@H](OC(=O)/C(C)=C/C)[C@@H]12
inhibition [1]: 3%
inhibition [18]: 64%
IC50 [3]: 26.8 µM

CN1[C@@H]2C[C@H](OC(=O)[C@H](CO)c3ccccc3)C[C@H]1[C@@H]1O[C@@H]12
IC50 [3]: 795 µM
IC50 (Leishmania amazonensis [19]): > 100 µM
IC50 (Leishmania amazonensis [20]): > 25 µM
IC50 (Trypanosoma brucei): > 100 µM

C=C[C@]1(C)C=C2CC[C@H]3[C@@](C)(CCC[C@]3(C)C(=O)O)[C@@H]2CC1
IC50 [3]: 1320 µM
IC50 (Trypanosoma cruzi [21]): 386 µM

C/C=C(/C)C(=O)O[C@H]1[C@H](OC(C)=O)[C@]2(CO)[C@H](O)C[C@]3(C)C(=CC[C@@H]4[C@@]5(C)CC[C@H](O[C@@H]6O[C@H](C(=O)O)[C@@H](O[C@@H]7O[C@H](CO)[C@@H](O)[C@H](O)[C@H]7O)[C@H](O)[C@H]6O[C@@H]6O[C@H](CO)[C@@H](O)[C@H](O)[C@H]6O)[C@](C)(CO)[C@@H]5CC[C@]43C)[C@@H]2CC1(C)C [ESCIN IB]
IC50 [3]: 478 µM
IC50 (Leishmania infantum [22]): 1.37 µM
IC50 (Leishmania infantum [23]): > 14.1 µM

C=C1C(=O)O[C@@H]2/C=C(/CO)C3=CC(=O)[C@@](C)(C[C@@H](OC(=O)/C(C)=C\C)[C@@H]12)O3
IC50 [3]: 653 µM
IC50 [24]: 0.07 µM
IC50 (Leishmania donovani [25]): 5.14 µM
IC50 (Trypanosoma cruzi [26]): 1.75 µM
IC50 (Leishmania infantum [27]): 28 µM

Oc1cc(O)c2c(c1)O[C@H](c1ccc(O)c(O)c1)[C@@H](O)C2 [CIANIDANOL]
inhibition [1]: 38%
inhibition [2]: 52%
IC50 [3]: 98.3 µM
IC50 (Leishmania donovani [28]): 103 µM
IC50 (Trypanosoma cruzi [29]): 310 µM
IC50 [30]: 50 µM
IC50 (Leishmania amazonensis [31]): 153 µM

CC[C@H](CC[C@H](C)[C@H]1CC[C@H]2[C@@H]3CC=C4C[C@@H](O)CC[C@]4(C)[C@H]3CC[C@]12C)C(C)C
IC50 [3]: 414 µM
IC50 (Leishmania donovani [28]): 27.8 µM
IC50 [32]: 86.1 µM
IC50 (Trypanosoma cruzi [29]): 35.4 µM

C=C(C)C(=O)O[C@H]1C[C@@]2(C)OC(=CC2=O)/C(CO)=C\[C@H]2OC(=O)C(=C)[C@H]12 [GOIAZENSOLIDE]
IC50 [3]: 156 µM
ΔTm [4]: -0.32 °C
ΔTm [5]: -0.84 °C
ΔTm [6]: -1.13 °C
ΔTm [7]: -0.73 °C
ΔTm [8]: -4.19 °C
ΔTm [9]: -6.51 °C
IC50 (Trypanosoma cruzi [33]): 1.08 µM
IC50 [24]: 0.07 µM
IC50 (Leishmania donovani [25]): 0.45 µM

O=c1ccc2ccccc2o1 [COUMARIN]
IC50 [3]: 642 µM
IC50 (Leishmania donovani [34]): 342 µM
IC50 (Leishmania amazonensis [35]): 342 µM
IC50 (Leishmania braziliensis [36]): 342 µM

— ChEMBL document CHEMBL4261582, “Natural products as inhibitors of Leishmania major dihydroorotate dehydrogenase” (Eur J Med Chem, 2018)
